Columns and labels:
Experiment in all cases: relative viability (nuclei count vs DMSO), 5 days (fraction); higher = more cells survive
NCI-H1993 = tested on: NCI-H1993
How it was run: (§1)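 The day after seeding in 1536-well plates, lung cancer cell lines were treated by pin tool with a single drug, or with a fixed anchor-drug dose together with five library-drug doses (not always all listed) in √10 steps. After 5 days, a combined fix-and-stain solution (final 0.05% Triton X-100, 1% formaldehyde, 1 ug/ml Hoechst) was added. Nuclei counted on 4× images gave relative viability as treated counts over vehicle counts, reported as the median of duplicate plates.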

NCI-H1395 = tested on: NCI-H1395
How it was run: as §1

LU99A = tested on: LU99A
How it was run: as §1

COR-L 105 = tested on: COR-L 105
How it was run: as §1

CAL-12T = tested on: CAL-12T
How it was run: as §1

PC-3 [JPC-3] = tested on: PC-3 [JPC-3]
How it was run: as §1

LC-2-ad = tested on: LC-2-ad
How it was run: as §1

NCI-H1944 = tested on: NCI-H1944
How it was run: as §1

NCI-H3122 = tested on: NCI-H3122
How it was run: as §1

NCI-H1734 = tested on: NCI-H1734
How it was run: as §1

HCC-15 = tested on: HCC-15
How it was run: as §1

HARA = tested on: HARA
How it was run: as §1

PC-14 = tested on: PC-14
How it was run: as §1

SK-LU-1 = tested on: SK-LU-1
How it was run: as §1

NCI-H838 = tested on: NCI-H838
How it was run: as §1

HCC-366 = tested on: HCC-366
How it was run: as §1

NCI-H1666 = tested on: NCI-H1666
How it was run: as §1

NCI-H1975 = tested on: NCI-H1975
How it was run: as §1

H3255 = tested on: H3255
How it was run: as §1

NCI-H647 = tested on: NCI-H647
How it was run: as §1

SMILES: COCC1(CO)C(=O)C2CCN1CC2 (configuration not stated) [PRIMA-1MET] + CC1(C)CCC(c2ccc(Cl)cc2)=C(CN2CCN(c3ccc(C(=O)NS(=O)(=O)c4ccc(N[C@H](CCN5CCOCC5)CSc5ccccc5)c(S(=O)(=O)C(F)(F)F)c4)cc3)CC2)C1 [Navitoclax] (partner 0.5 µM)
- relative viability (NCI-H1993; first compound 0.2 µM): 0.997
- relative viability (NCI-H1993; first compound 0.6325 µM): 0.772
- relative viability (NCI-H1993; first compound 2 µM): 0.813
- relative viability (NCI-H1993; first compound 6.325 µM): 0.889
- relative viability (NCI-H1993; first compound 20 µM): 1.02
- relative viability (NCI-H1395; first compound 0.2 µM): 1.17
- relative viability (NCI-H1395; first compound 0.6325 µM): 1.49
- relative viability (NCI-H1395; first compound 2 µM): 1.02
- relative viability (NCI-H1395; first compound 6.325 µM): 1.24
- relative viability (NCI-H1395; first compound 20 µM): 0.44
- relative viability (LU99A; first compound 0.2 µM): 1.06
- relative viability (LU99A; first compound 0.6325 µM): 0.611
- relative viability (LU99A; first compound 2 µM): 0.898
- relative viability (LU99A; first compound 6.325 µM): 0.752
- relative viability (LU99A; first compound 20 µM): 0.101
- relative viability (COR-L 105; first compound 0.2 µM): 0.826
- relative viability (COR-L 105; first compound 0.6325 µM): 0.513
- relative viability (COR-L 105; first compound 2 µM): 0.761
- relative viability (COR-L 105; first compound 6.325 µM): 0.671
- relative viability (COR-L 105; first compound 20 µM): 0.211
- relative viability (CAL-12T; first compound 0.2 µM): 1.3
- relative viability (CAL-12T; first compound 0.6325 µM): 1.32
- relative viability (CAL-12T; first compound 2 µM): 1.15
- relative viability (CAL-12T; first compound 6.325 µM): 1.3
- relative viability (CAL-12T; first compound 20 µM): 0.583
- relative viability (PC-3 [JPC-3]; first compound 0.2 µM): 0.853
- relative viability (PC-3 [JPC-3]; first compound 0.6325 µM): 0.572
- relative viability (PC-3 [JPC-3]; first compound 2 µM): 0.816
- relative viability (PC-3 [JPC-3]; first compound 6.325 µM): 0.794
- relative viability (PC-3 [JPC-3]; first compound 20 µM): 0.708
- relative viability (LC-2-ad; first compound 0.2 µM): 0.483
- relative viability (LC-2-ad; first compound 0.6325 µM): 0.375
- relative viability (LC-2-ad; first compound 2 µM): 0.511
- relative viability (LC-2-ad; first compound 6.325 µM): 0.39
- relative viability (LC-2-ad; first compound 20 µM): 0.217
- relative viability (NCI-H1944; first compound 0.2 µM): 1.18
- relative viability (NCI-H1944; first compound 0.6325 µM): 0.892
- relative viability (NCI-H1944; first compound 6.325 µM): 1.02
- relative viability (NCI-H1944; first compound 20 µM): 1.08
- relative viability (NCI-H3122; first compound 0.2 µM): 0.926
- relative viability (NCI-H3122; first compound 0.6325 µM): 1.02
- relative viability (NCI-H3122; first compound 2 µM): 1.05
- relative viability (NCI-H3122; first compound 6.325 µM): 1.01
- relative viability (NCI-H3122; first compound 20 µM): 0.976
- relative viability (NCI-H1734; first compound 0.2 µM): 0.943
- relative viability (NCI-H1734; first compound 0.6325 µM): 0.772
- relative viability (NCI-H1734; first compound 2 µM): 0.744
- relative viability (NCI-H1734; first compound 6.325 µM): 0.922
- relative viability (NCI-H1734; first compound 20 µM): 0.221
- relative viability (HCC-15; first compound 0.2 µM): 0.772
- relative viability (HCC-15; first compound 0.6325 µM): 0.686
- relative viability (HCC-15; first compound 2 µM): 0.694
- relative viability (HCC-15; first compound 6.325 µM): 0.713
- relative viability (HCC-15; first compound 20 µM): 0.455
- relative viability (HARA; first compound 0.2 µM): 1.22
- relative viability (HARA; first compound 0.6325 µM): 1.02
- relative viability (HARA; first compound 6.325 µM): 1.13
- relative viability (HARA; first compound 20 µM): 1.11
- relative viability (PC-14; first compound 0.2 µM): 0.951
- relative viability (PC-14; first compound 0.6325 µM): 0.932
- relative viability (PC-14; first compound 2 µM): 0.936
- relative viability (PC-14; first compound 6.325 µM): 1.03
- relative viability (PC-14; first compound 20 µM): 0.929
- relative viability (SK-LU-1; first compound 0.2 µM): 0.848
- relative viability (SK-LU-1; first compound 0.6325 µM): 1.06
- relative viability (SK-LU-1; first compound 2 µM): 0.789
- relative viability (SK-LU-1; first compound 6.325 µM): 1.15
- relative viability (SK-LU-1; first compound 20 µM): 0.0933
- relative viability (NCI-H838; first compound 0.2 µM): 1.38
- relative viability (NCI-H838; first compound 0.6325 µM): 1.12
- relative viability (NCI-H838; first compound 2 µM): 1.23
- relative viability (NCI-H838; first compound 6.325 µM): 1.23
- relative viability (NCI-H838; first compound 20 µM): 1.15
- relative viability (HCC-366; first compound 0.2 µM): 1.27
- relative viability (HCC-366; first compound 0.6325 µM): 0.959
- relative viability (HCC-366; first compound 6.325 µM): 0.981
- relative viability (HCC-366; first compound 20 µM): 0.024
- relative viability (NCI-H1666; first compound 0.2 µM): 1.01
- relative viability (NCI-H1666; first compound 0.6325 µM): 0.858
- relative viability (NCI-H1666; first compound 2 µM): 1.03
- relative viability (NCI-H1666; first compound 6.325 µM): 0.895
- relative viability (NCI-H1666; first compound 20 µM): 0.249
- relative viability (NCI-H1975; first compound 0.2 µM): 1.13
- relative viability (NCI-H1975; first compound 0.6325 µM): 1.03
- relative viability (NCI-H1975; first compound 2 µM): 1.12
- relative viability (NCI-H1975; first compound 6.325 µM): 1.21
- relative viability (NCI-H1975; first compound 20 µM): 0.96
- relative viability (H3255; first compound 0.2 µM): 0.557
- relative viability (H3255; first compound 0.6325 µM): 0.522
- relative viability (H3255; first compound 2 µM): 0.515
- relative viability (H3255; first compound 6.325 µM): 0.544
- relative viability (H3255; first compound 20 µM): 0.354
- relative viability (NCI-H647; first compound 0.2 µM): 1.15
- relative viability (NCI-H647; first compound 0.6325 µM): 1
- relative viability (NCI-H647; first compound 2 µM): 0.889
- relative viability (NCI-H647; first compound 6.325 µM): 1.24
- relative viability (NCI-H647; first compound 20 µM): 0.909

From the supplement of paper PMC10307832
